{
  "source": "patent US10525139B2",
  "about": "“Folate-conjugated molecules for delivery of toxic small molecule inhibitors to cancer cells and methods of use” (priority 2014, dated 2020)",
  "key": {"[1]": {"tested_on": "T-ALL cell lines", "experiment": "T-ALL cell viability / growth (ATP content, Cell-Titer Glo)", "format": "cell-based, human"}, "[2]": {"tested_on": "NOTCH1", "experiment": "NOTCH1 cell surface staining by flow cytometry", "format": "cell-based, human", "settings": "T-ALL cells; for NOTCH1 expression on the cell surface: 24 hours", "description": "We previously described that the SERCA inhibitors thapsigargin and cyclopiazonic acid impair NOTCH1 maturation leading to an accumulation of full-length, unprocessed polypeptides in the endoplasmic reticulum/Golgi subcellular compartment. An immediate consequence of SERCA inhibition is a decrement in NOTCH1 protein display on the surface of T-ALL cells. […] To further support the hypothesis that Thap-OH impairs mutant NOTCH1 maturation, we evaluated levels of full-length, transmembrane and activated NOTCH1 (ICN1) by WB. Lysates from T-ALL cell lines treated with 1 μM Thap-OH were immunoblotted with an antibody specific for the cytoplasmic portion of NOTCH1 that recognizes both unprocessed NOTCH1 (FL-N1) (˜270 kDa) and the furin-processed transmembrane subunit (TM-N1) (˜110 kDa).\n(§1) The NOTCH loss was measured via flow cytometry. […] The recapitulation of the thapsigargin effect by JQ-FT is hypothesized to be due to the delivery strategy introduced by folate. […] Here cell growth was assessed using the Promega Cell-Titer Glo ATP-based assay (Promega, Madison, Wis., USA). Luminescence was measured using a Fluostar Omega instrument (BMG-labtech, Ortenberg, Germany)."}, "[3]": {"tested_on": "panel of cell lines", "experiment": "Apoptosis luminescence assay (Caspase) in a panel of cell lines", "format": "cell-based", "settings": "384-well plates, 72 hours", "experimental": "Cells were grown in 384-well plates and treated for 72 hours with the indicated dose of Folate-Thap. Apoptosis was measured using a luminescence assay developed by Promega."}, "[4]": {"experiment": "Maximal tolerated dose in mice", "format": "in vivo", "experimental": "Though the JQ-FT conjugate has not, as yet, been optimized for pharmacologic properties, we are eager to explore the utility of the compound as an in vivo chemical probe, while assessing putative tolerability of folate-conjugated thapsigargins. We first established the maximal tolerated dose (MTD) of JQ-FT as 60 mg/kg/day in mice, as administered by daily intraperitoneal injection. […] We therefore initiated treatment studies of JQ-FT (60 mg/kg IP daily) in mice with established T-ALL."}, "[5]": {"tested_on": "T-ALL cell lines", "experiment": "T-ALL cell viability / growth (ATP content, Cell-Titer Glo)", "format": "cell-based, human", "settings": "for cell growth / proliferation: T-ALL cell lines, 10 μM", "experimental": "Thus, cell lines carrying NOTCH1 alleles with HD domain, mutations were more sensitive to Thap-OH than cells with WT NOTCH1 alleles.\nAs a further test of the idea that JQ-FT acts by preventing NOTCH1 activation in a manner similar to thapsigargin, the NOTCH1-dependent T-ALL cell lines RPMI-8402 were transduced with empty MigRI vector or with ICN1, which lies downstream of the γ-secretase cleavage step in Notch activation. Viral supernatant production and retroviral infections were performed as described for MigRI retroviral vectors (Aster, J. C., et al. “Essential roles for ankyrin repeat and transactivation domains in induction of T-cell leukemia by NOTCH1.” Mol. Cell. Biol. 2000; 20:7505-7515). Transduction efficiency for MigRI was monitored by assessing GFP expression with a FACScan flow cytometer (BD, Franklin Lakes, N.J., USA) (Aster et al., Mol. Cell. Biol. 2000; 20:7505-7515). After viral infection, GFP-positive cells were sorted by flow cytometry with a FACSAria II (BD, Franklin Lakes, N.J., USA). […] Therefore, JQ-FT can recapitulate the Thapsigargin effect with the delivery mechanism of folate.\nas §1\nThe effects of JQ-FT in a panel of T-ALL cell lines that contain activating mutations in the HD domain of NOTCH1 and/or protein stabilizing deletions within the PEST degradation domain."}},
  "note": "“Also recorded” adds a separate entry of the source.",
  "data": [
    {"compound": "C/C=C(/C)C(=O)O[C@H]1C(C)=C2C([C@@H]1OC(=O)CCCCCCC)[C@@](C)(OC(C)=O)C[C@H](OC(=O)CC[C@H](NC(=O)c1ccc(NCc3cnc4nc(N)[nH]c(=O)c4n3)cc1)C(=O)O)[C@@]1(O)[C@H]2OC(=O)[C@@]1(C)O", "note": "(stereo partly drawn) [JQ-FT]", "values": [
      {"measurement": "cell cycle", "setting": "[1]; T-ALL cell lines, 10 μM", "value": "G1 cell cycle arrest"},
      {"measurement": "induction of apoptosis in T-ALL cell lines", "setting": "[1]; T-ALL cell lines, 10 μM", "value": "rapid induction of apoptosis"},
      {"measurement": "effect on cell viability in FR-overexpressing cell lines", "setting": "[1]; cell lines overexpressing FR1 or FR2", "value": "greater effect on cell viability"},
      {"measurement": "effect on cell surface NOTCH1 compared with thapsigargin", "setting": "[2]", "value": "more similar to thapsigargin at 20 uM"},
      {"measurement": "NOTCH1 expression on the cell surface", "setting": "[2]", "value": "show NOTCH loss"},
      {"measurement": "NOTCH1 expression on the cell surface", "setting": "[2]; listed as Folate-Thap", "value": "loss of Notch in a manner similar to thapsigargin"},
      {"measurement": "apoptosis as measured by Caspase", "setting": "[3]", "value": "apoptotic effect"},
      {"measurement": "MTD relative to MTD of unconjugated thapsigargin", "setting": "[4]", "value": 150, "unit": "fold"},
      {"measurement": "MTD", "setting": "[4]; mouse, in vivo, ip, daily intraperitoneal injection", "value": 60, "unit": "mg/kg/day"},
      {"measurement": "rescue of loss of viability by exogenous ICN1", "setting": "[5]; RPMI 8402 transduced with MigR1-ICN1 vs empty vector", "value": "overexpressing an exogenous ICN1 partially rescues the observed phenotype; also recorded: attenuated the growth inhibitory effects of JQ-FT"},
      {"measurement": "cell growth / proliferation", "setting": "[5]", "value": "impaired cell growth"},
      {"measurement": "cell growth / proliferation", "setting": "[5]; listed as Folate-Thap", "value": "antiproliferation effect; also recorded: arrest of cell proliferation"}
    ]}
  ]
}
